Here are results for one compound from patent publication US20040180938A1, “Novel butadiene derivatives, process for preparation of the same and intermediates for the synthesis thereof” (priority 2001, published 2004).

Take `COC(=O)C(=C(/C)c1ccc(C(=O)O)cc1)/C(=C\c1cccc(OC)c1)C(=O)Nc1ccnc(C)c1.Cl`: the melting point was 232 °C (dec.).
